Test results as given in US7504380B2, “Antimicrobial peptide isolated from halocynthia aurantium” (Industry-Academic Cooperation Foundation, Hoseo University, priority 2002, dated 2009).

Legend:
[1] = system: multi drug resistance Pseudomonas aeruginosa (MDRPA); test: ultra-sensitive radial diffusion assay, MDRPA; assay type: cell-based; conditions: according to the concentration of the peptides; FIG. 9B, 9D
Protocol: (§1) In order to measure the antimicrobial activity of acid extracts of Halocynthia aurantium obtained in the above Example <1-1>, the present inventors performed ultrasensitive radial diffusion assay. Particularly, analyzed 150 fractions eluted in the above Example <1-1> 5 times each. Took 100 μl from 2 ml of each fraction and concentrated thereof with a vacuum centrifugation (Centra Evaporator, Bioneer, Korea), which was suspended in 5 μl of 0.01% acetic acid solution. Meanwhile, prepared agarose plate including wells 3 mm in diameter by adding methicillin resistance Staphylococcus aureus (referred as “MRSA” hereinafter, Seoul Women's University, Korea CCARM3001) of mid-logarithmic phase to gel comprising sterilized citrate phosphate buffer (9 mM sodium phosphate, 1 mM sodium citrate, pH 7.4), 1% (w/v) type 1 agarose (low electroendosmosis agarose) (A 6013, Sigma) and 3% tryptic soy broth (TSB, Difco, Detroit, Mich., USA). Loaded the above fractions onto the wells of agarose plate containing the above bacteria. Reacted thereof for 3 hours to make the peptides spread into the agarose gel. Added 10 ml of overnutrition medium comprising 6% TSB and 1% agarose gel thereto. Cultured the above plate for overnight until the colonies of the above bacteria were formed. Confirmed the antimicrobial activity of the loaded peptide by measuring the diameter of clearing zone formed around the loaded peptide fraction.
(§2) The present inventors performed ultra-sensitive radical diffusion assay with synthetic peptides prepared in the above Example <2-2>. Particularly, measured antimicrobial activity of each 15Hc, di-15Hc, 18Hc, di-18Hc, halocidin, magainin 1 (Sigma) (control group) and buforin 2 (Sigma) (comparative group) against MRSA and multi drug resistance Pseudomonas aeruginosa (referred as “MDRPA” hereinafter)(Seoul Women's University CCARM2002) according to the concentration of the peptides.

human erythrocytes = assay type: cell-based
Protocol: In order to investigate […] of halocidin, the present inventors performed hemolytic assay. Particularly, mixed 20 μl of peptide diluted to 100, 50, 25, 12.5, 6.25, 3.125 μg/ml and 180 μl of 2.5% (V/V) human erythrocytes in PBS. Used melittin (Sigma) and clavanin AK, a congener in which clavanin A residue was substituted, for comparative group, and 0.01% acetic acid for control group. After reacting the mixture at 37° C. for 30 minutes, added 600 μl of PBS into each tube. Centrifuged the solution at 10,000 g for 3 minutes and separated supernatants. Measured OD at 540 nm and calculated the hemolytic activity (%) according to the below <Mathematical Formula 1>.

[2] = system: Gram negative bacteria such as Pseudomonas aeruginosa, Salmonella cholerasuis, Salmonella parotyphi A, E. coli K112 and E. coli DH5α; test: radial diffusion assay, Gram-negative bacteria; assay type: cell-based; conditions: FIG. 12-14
[3] = system: Gram-positive bacteria such as Staphylococcus aureus, Micrococcus luteus, Enterococcus faecalis, Bacillus subtilus and MRSA; test: radial diffusion assay, Gram-positive bacteria; assay type: cell-based; conditions: FIG. 15-17
Protocol: In order to measure the antimicrobial activity of acid extracts of Halocynthia aurantium obtained in the above Example <1-1>, the present inventors performed ultrasensitive radial diffusion assay. Particularly, analyzed 150 fractions eluted in the above Example <1-1> 5 times each. Took 100 μl from 2 ml of each fraction and concentrated thereof with a vacuum centrifugation (Centra Evaporator, Bioneer, Korea), which was suspended in 5 μl of 0.01% acetic acid solution. Meanwhile, prepared agarose plate including wells 3 mm in diameter by adding methicillin resistance Staphylococcus aureus (referred as “MRSA” hereinafter, Seoul Women's University, Korea CCARM3001) of mid-logarithmic phase to gel comprising sterilized citrate phosphate buffer (9 mM sodium phosphate, 1 mM sodium citrate, pH 7.4), 1% (w/v) type 1 agarose (low electroendosmosis agarose) (A 6013, Sigma) and 3% tryptic soy broth (TSB, Difco, Detroit, Mich., USA). Loaded the above fractions onto the wells of agarose plate containing the above bacteria. Reacted thereof for 3 hours to make the peptides spread into the agarose gel. Added 10 ml of overnutrition medium comprising 6% TSB and 1% agarose gel thereto. Cultured the above plate for overnight until the colonies of the above bacteria were formed. […]

[4] = system: methicillin resistance Staphylococcus aureus (MRSA); test: ultrasensitive radial diffusion assay, MRSA; assay type: cell-based; design: antimicrobial activity according to pH, MRSA / antimicrobial activity according to NaCl, MRSA: unit not given here; conditions: for antimicrobial activity to MRSA strain (diameter of clear zone): according to the concentration of the peptides, FIG. 9A, 9C
Protocol: as §1, §2
(§3) Particularly, adjusted the pH of media to 7.4, 6.5 and 5.5 respectively by adding HCl, which was checked with a pH meter, and performed radical diffusion assay with the same method as the above Example 1 to investigate the antimicrobial activity to MRSA and Enterococcus faecalis.
(§4) Particularly, changed the basic condition of media by adding 100 mM NaCl, 150 mM NaCl and 200 mM NaCl respectively, and investigated the antimicrobial activity to MRSA and Enterococcus faecalis by radical diffusion assay.

Enterococcus faecalis = test: radial diffusion assay, Enterococcus faecalis; assay type: cell-based; design: unit not given here
Protocol: as §1, §3, §4

MRSA strain = test: colony counting assay, MRSA; assay type: cell-based, Staphylococcus aureus; conditions: peptide 5 μg/ml, 5 and 15 minutes; FIG. 10
Protocol: (§5) In order to investigate antimicrobial activity of halocidin, the present inventors performed colony counting assay. Particularly, adjusted the final concentration of the peptide to 5 μg/ml by mixing the peptide and MRSA strain or MDRPA strain of mid-log phase in sterilized 10 mM sodium phosphate buffer (pH 7.4) containing 0.3 mg/id of TSB powder. Adjusted the final volume of the above mixture to 100 μl, and then let it be pre-reacted in a 37° C. shaking water bath for 5 and 15 minutes each. Collected 20 μl of pre-reacted solution and loaded thereof onto 1.5% bacto-agar plate (Difco). Induced reaction for overnight and counted the number of formed colonies on the above plate, from which measured the antimicrobial activity. Used magainin 1 and buforin 2 for comparative group, and 0.01% acetic acid for control group.

MDRPA strain = test: colony counting assay, MDRPA; assay type: cell-based, Pseudomonas aeruginosa; conditions: peptide 5 μg/ml, 5 and 15 minutes; FIG. 10
Protocol: as §5

Row | Substance | antimicrobial activity to MDRPA strain (diameter of clear zone) [1] | hemolytic activity (human erythrocytes) [%] | antimicrobial activity to Gram-negative bacteria [2] | antimicrobial activity to Gram-positive bacteria [3] | antimicrobial activity according to NaCl, MRSA ([4]; NaCl 100 mM) | antimicrobial activity according to NaCl, MRSA ([4]; NaCl 150 mM) | antimicrobial activity according to NaCl, MRSA ([4]; NaCl 200 mM) | antimicrobial activity to MRSA strain (diameter of clear zone) [4] | antimicrobial activity according to pH, MRSA ([4]; pH = 5.5) | antimicrobial activity according to pH, MRSA ([4]; pH = 6.5) | antimicrobial activity according to pH, MRSA ([4]; pH = 7.4) | antimicrobial activity according to NaCl, Enterococcus faecalis (Enterococcus faecalis; NaCl 100 mM) | antimicrobial activity according to NaCl, Enterococcus faecalis (Enterococcus faecalis; NaCl 150 mM) | antimicrobial activity according to NaCl, Enterococcus faecalis (Enterococcus faecalis; NaCl 200 mM) | antimicrobial activity according to pH, Enterococcus faecalis (Enterococcus faecalis; pH = 5.5) | antimicrobial activity according to pH, Enterococcus faecalis (Enterococcus faecalis; pH = 6.5) | antimicrobial activity according to pH, Enterococcus faecalis (Enterococcus faecalis; pH = 7.4) | antimicrobial activity by colony counting, MRSA (MRSA strain) | antimicrobial activity by colony counting, MDRPA (MDRPA strain)
1 | 15Hc: 15-amino-acid monomer of halocidin; 18Hc lacking three N-terminal amino acids, SEQ. ID. No 2 (WLNALLHHGLNCAKG; PEPTIDE (1)..(1) 15mer of halocydin; listed as Halocynthia aurantium) [Peptide 15Hc, 15-amino-acid monomer of halocidin; ID; No 2] | higher antimicrobial activity than comparative group | 0 | hardly showed or had minimum antimicrobial activity | low antimicrobial activity | – | – | – | – | – | – | – | – | – | – | – | – | – | – | –
2 | Buforin 2 | proved to have antimicrobial activity | – | – | – | >64 | >64 | >64 | proved to have antimicrobial activity | >64 | >64 | >64 | >64 | >64 | >64 | >64 | >64 | >64 | – | –
3 | KWLNALLHHGLNCAKGVLA (PEPTIDE (1)..(19) 19mer of halocydin; listed as Halocynthia aurantium) [K(18 + 1)Hc, ID; No 9] | – | – | – | – | 16-32 | 16-32 | 32-64 | – | 32-64 | 16-32 | 16-32 | 16-32 | 16-32 | 16-32 | 16-32 | 16-32 | 8-16 | – | –
4 | Magainin 1 (GIGKFLHSAGKFGKAFVGEIMKS; Magainin-1; UniProt P11006 37-59, looked up) [magainin 1 (Sigma), control/comparative antimicrobial peptide] | proved to have antimicrobial activity | – | – | – | >64 | >64 | >64 | – | >64 | >64 | >64 | >64 | >64 | >64 | >64 | >64 | >64 | – | –
5 | Secrofin A | – | – | – | – | >64 | >64 | >64 | – | >64 | >64 | >64 | >64 | >64 | >64 | >64 | >64 | >64 | – | –
6 | WLNALLHHGLNCAKGVLA (PEPTIDE (1)..(1) 18mer of halocydin; listed as Halocynthia aurantium) [Peptide 18Hc, ID; No 1] | higher antimicrobial activity than comparative group | 9 | hardly showed or had minimum antimicrobial activity | low antimicrobial activity | – | – | – | higher antimicrobial activity than buforin 2 | – | – | – | – | – | – | – | – | – | high antimicrobial activity | high antimicrobial activity
